Where two headings read alike, the source gives them in different places.
Tests used:
G2019S LRRK2 = molecular target: T1, G2019S LRRK2 (Homo sapiens, UniProt Q5S007, G2019S); assay: LRRK2 degradation assay, HiBit-tagged G2019S LRRK2 expressed from plasmid in HEK293 cells (Nano-Glo Dual-Luciferase); format: cell-based; details: 24 hours
T1 construct: expressed in transfected cells; host or cells: HEK293 (ATCC CRL-1573), transient transfection, mammalian expression vector with ubiquitin promoter
Excerpt: (§1) Exemplary Assay for Testing LRRK2 Degradation Driven by Exemplary Hetero-Bifunctional Compounds Designed to Target LRRK2
(§2) The assay measures the degradation of wildtype and G2019S LRRK2 tagged with a HiBit tag on the C-terminus of the protein that was expressed from a mammalian expression vector, driven by the ubiquitin promoter in HEK293 cells. Each compound dose-response was repeated on two separate days, on three separate plates each day.
(§3) Plasmid Preparation. Transfection mixes were assembled as follows and incubated for 30 minutes at room temperature. In a 15 mL tube, 5.25 mL Opti-MEM (no additions) was mixed with 17 μL Firefly Luciferase plasmid at 1 μg/μL and 158 μL WT plasmid DNA at 1 μg/μL (175 μg total DNA) were mixed by flicking. In a new 15 mL tube, 5.25 mL OptiMEM was mixed with 17 μL Firefly Luciferase plasmid at 1 μg/μL and 158 μL G2019S plasmid DNA at 1 μg/μL (175 μg total DNA) were mixed by flicking. X-tremeGene HP was mixed thoroughly using a vortex. Next, 175 μL was added to each tube and flicked to mix. Both tubes were left to incubate for 30 minutes at room temperature.
(§4) While the transfection mixes were incubating, HEK293 cells (acquired from ATCC; ATCC CRL-1573) were harvested with trypsin. Once cells are detached, the cells were resuspended in 12 mL OptiMEM+5% FBS and transferred to a 50 mL tube. The cells were mixed well and counted. Using OptiMEM+5% FBS, the cells were diluted in two 250 mL conical tubes at 0.71×10^6 cells/mL in 70 mL. One tube was labeled “WT” and the other “G2019S”. The WT and G2019S transfection mixes were added dropwise to the corresponding 250 mL tubes. The tubes were mixed first by pipetting then by swirling. The tubes were incubated at room temperature for at least 5 minutes.
(§5) Each tube was swirled before dispensing and after every three plates. Seventy microliters of cells were dispensed with WT or G2019S DNA to seven plates each. Three plates of each were tested with compound plate one (preparation described below) and three plates of each were tested with compound plate two (preparation described below). The first plate from each set served as a “prime” plate and was not used to test compounds. Each plate was incubated in the hood for 10 minutes before placing in the 37° C. incubator for 24 hours.
(§6) Preparation of Compound and Assay Plates. Two compound plates were made using 96 well polypropylene plates. Compounds were made up at 10 mM and were diluted to 1 mM in 30 μL. Each dose response curve included a well of DMSO, as a negative control and for normalization, and a well of 0.5 μM of Compound 4 as a positive control. In addition to seven test compounds, each plate also included a dose response of Compound 4. The compound plates were spun down along at 1200 rpm for 2 minutes.
(§7) The two compound plates were then mixed and 2 μL was diluted in intermediate plates having 248 μL of Opti-Mem in each well. Next, 10 μL diluted compounds from the intermediate plates were added to each test plate (three WT and three G2019S plates per compound plate for a total of 12 assay plates). The plates were incubated for 24 hours at 37° C.
(§8) All assay plates and all Nano-Glo Dual-Luciferase Reporter Assay System components (except for the DLR substrate) were equilibrated to room temperature. Next, the luciferase buffer was mixed with the lyophilized amber bottle until fully dissolved, and 75 μL of the luciferase mixture was added to each well of each assay plate. The assay plates were incubated for 10 minutes at room temperature with shaking for at least 5 minutes, and then read on a plate reader.
(§9) Developing Plates and Analyzing Data. One milliliter of DLR substrate and 1 mL LgBiT Protein were added to the Stop and Glo buffer, and 75 μL of the mixture was added to each well of each plate. Optically clear seals were added to each plate and each plate was incubated for 20 minutes with shaking for at least 10 minutes, and then read on a plate reader. […]

wildtype LRRK2 = molecular target: T2, wildtype LRRK2 (Homo sapiens, UniProt Q5S007); assay: LRRK2 degradation assay, HiBit-tagged wildtype LRRK2 expressed from plasmid in HEK293 cells (Nano-Glo Dual-Luciferase); format: cell-based; details: 24 hours; for Dmax: read-out: **WT Dmax (%); for DC50: read-out: *WT DC50
T2 construct: expressed in transfected cells; host or cells: HEK293 (ATCC CRL-1573), transient transfection, mammalian expression vector with ubiquitin promoter
T2 sequence (Q5S007 whole entry): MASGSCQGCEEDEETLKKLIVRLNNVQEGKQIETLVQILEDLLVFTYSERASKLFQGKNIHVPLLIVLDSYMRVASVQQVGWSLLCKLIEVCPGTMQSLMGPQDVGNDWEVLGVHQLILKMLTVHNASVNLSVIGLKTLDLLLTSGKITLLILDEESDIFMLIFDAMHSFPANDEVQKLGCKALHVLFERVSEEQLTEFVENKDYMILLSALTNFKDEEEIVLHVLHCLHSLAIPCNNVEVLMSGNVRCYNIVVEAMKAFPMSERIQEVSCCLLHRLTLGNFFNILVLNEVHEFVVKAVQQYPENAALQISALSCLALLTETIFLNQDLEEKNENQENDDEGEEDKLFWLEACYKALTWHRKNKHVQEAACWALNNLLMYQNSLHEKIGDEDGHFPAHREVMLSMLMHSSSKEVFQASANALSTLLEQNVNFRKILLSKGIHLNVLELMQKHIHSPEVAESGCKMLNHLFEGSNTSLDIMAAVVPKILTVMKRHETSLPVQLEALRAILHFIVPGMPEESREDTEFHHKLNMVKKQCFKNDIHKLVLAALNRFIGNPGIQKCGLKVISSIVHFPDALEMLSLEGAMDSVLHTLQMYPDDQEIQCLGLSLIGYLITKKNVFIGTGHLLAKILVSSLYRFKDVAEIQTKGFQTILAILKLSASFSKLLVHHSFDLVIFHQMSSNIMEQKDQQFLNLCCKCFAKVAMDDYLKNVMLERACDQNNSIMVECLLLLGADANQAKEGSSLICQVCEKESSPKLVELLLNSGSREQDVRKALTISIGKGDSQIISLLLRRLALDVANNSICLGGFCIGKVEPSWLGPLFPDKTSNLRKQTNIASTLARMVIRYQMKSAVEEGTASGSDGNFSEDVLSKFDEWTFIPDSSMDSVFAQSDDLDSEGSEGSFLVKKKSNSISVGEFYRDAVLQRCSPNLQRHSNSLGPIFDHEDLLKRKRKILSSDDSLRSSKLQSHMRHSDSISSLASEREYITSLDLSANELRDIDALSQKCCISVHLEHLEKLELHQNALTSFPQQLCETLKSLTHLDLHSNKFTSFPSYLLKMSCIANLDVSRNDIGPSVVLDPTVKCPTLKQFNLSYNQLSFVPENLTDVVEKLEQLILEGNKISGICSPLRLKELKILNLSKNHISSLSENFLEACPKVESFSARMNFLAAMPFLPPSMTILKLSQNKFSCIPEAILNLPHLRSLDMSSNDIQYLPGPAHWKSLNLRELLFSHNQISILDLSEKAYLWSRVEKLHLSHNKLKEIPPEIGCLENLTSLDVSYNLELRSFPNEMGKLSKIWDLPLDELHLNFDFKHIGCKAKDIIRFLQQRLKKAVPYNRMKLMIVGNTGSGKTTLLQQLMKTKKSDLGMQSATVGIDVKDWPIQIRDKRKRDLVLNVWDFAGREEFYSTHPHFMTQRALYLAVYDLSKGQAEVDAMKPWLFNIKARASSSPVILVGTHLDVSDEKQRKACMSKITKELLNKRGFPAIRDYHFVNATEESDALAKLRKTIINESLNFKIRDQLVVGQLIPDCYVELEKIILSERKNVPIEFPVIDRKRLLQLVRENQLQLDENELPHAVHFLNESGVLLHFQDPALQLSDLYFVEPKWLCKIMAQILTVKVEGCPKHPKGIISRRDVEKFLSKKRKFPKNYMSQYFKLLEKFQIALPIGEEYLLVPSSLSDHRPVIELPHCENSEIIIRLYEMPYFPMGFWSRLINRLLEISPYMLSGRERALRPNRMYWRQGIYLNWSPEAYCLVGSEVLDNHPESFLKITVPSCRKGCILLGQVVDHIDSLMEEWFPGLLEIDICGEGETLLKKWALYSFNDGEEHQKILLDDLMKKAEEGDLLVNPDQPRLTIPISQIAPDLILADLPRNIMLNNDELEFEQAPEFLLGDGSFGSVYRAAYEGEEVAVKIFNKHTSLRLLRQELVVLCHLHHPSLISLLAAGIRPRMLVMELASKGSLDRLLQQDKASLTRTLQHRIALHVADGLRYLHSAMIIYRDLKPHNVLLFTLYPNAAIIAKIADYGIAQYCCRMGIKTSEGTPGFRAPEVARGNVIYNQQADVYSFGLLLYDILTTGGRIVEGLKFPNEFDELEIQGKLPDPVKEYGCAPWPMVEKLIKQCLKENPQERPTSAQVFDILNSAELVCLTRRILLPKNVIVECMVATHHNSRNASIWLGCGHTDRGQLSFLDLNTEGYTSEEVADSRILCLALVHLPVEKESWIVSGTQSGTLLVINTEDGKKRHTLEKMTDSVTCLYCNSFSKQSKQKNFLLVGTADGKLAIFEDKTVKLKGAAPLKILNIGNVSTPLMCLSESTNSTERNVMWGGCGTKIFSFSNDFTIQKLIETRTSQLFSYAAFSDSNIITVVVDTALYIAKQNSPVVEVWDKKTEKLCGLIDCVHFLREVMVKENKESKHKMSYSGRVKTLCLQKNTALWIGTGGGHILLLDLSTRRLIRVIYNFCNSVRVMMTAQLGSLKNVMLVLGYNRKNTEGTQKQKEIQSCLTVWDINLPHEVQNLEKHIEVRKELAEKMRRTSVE
Excerpt: as §1, §2, §3, §4, §5, §6, §7, §8, §9

[1] = HiBit-tagged G2019S LRRK2 in HEK293 cells
[2] = HiBit-tagged wildtype LRRK2 in HEK293 cells
[3] = HiBit-tagged G2019S LRRK2, HEK293 cells
[4] = HiBit-tagged wildtype LRRK2, HEK293 cells

T1 sequence (Q5S007 whole entry G2019S): as the sequence (Q5S007 whole entry) above, with G2019S counted along it

Compound	DC50 (G2019S LRRK2; [1])	Dmax (G2019S LRRK2; [1])	Dmax (wildtype LRRK2; [2])	DC50 (wildtype LRRK2; [2])	DC50 (G2019S LRRK2; [3])	Dmax (G2019S LRRK2; [3])	Dmax (wildtype LRRK2; [4])	DC50 (wildtype LRRK2; [4])
CC1(Oc2ccc3[nH]nc(-c4cc(N5CCC(C(=O)N6CCC(CN7CCN(c8ccc9c(c8)C(=O)N(C8CCC(=O)NC8=O)C9=O)CC7)CC6)CC5)ncn4)c3c2)CC1 (stereo not drawn) [Compound 86, 2-(2,6-dioxopiperidin-3-yl)-5-(4-{[1-(1-{6-[5-(1-methylcyclopropoxy)-1H-indazol-3-yl]pyrimidin-4-yl}piperidine-4-carbonyl)piperidin-4-yl]methyl}piperazin-1-yl)-2,3-dihydro-1H-isoindole-1,3-dione]	< 10 nM	50 to 70%	50 to 70%	< 10 nM	–	–	–	–
CC1(Oc2ccc3[nH]nc(-c4ccnc(N5CCN(CC6(F)CCN(C(=O)C7CCN(c8ccc9c(c8)C(=O)N(C8CCC(=O)NC8=O)C9=O)CC7)CC6)CC5)c4)c3c2)CC1 (stereo not drawn) [Compound 97, 2-(2,6-dioxo-3-piperidyl)-5-[4-[4-fluoro-4-[[4-[4-[5-(1-methylcyclopropoxy)-1H-indazol-3-yl]-2-pyridyl]piperazin-1-yl]methyl]piperidine-1-carbonyl]-1-piperidyl]isoindoline-1,3-dione]	< 10 nM	< 50%	50 to 70%	< 10 nM	–	–	–	–
CC1(Oc2ccc3[nH]nc(-c4cc(N5CCC(CN6CC[C@@H](OC7CCN(c8ccc9c(c8)C(=O)N(C8CCC(=O)NC8=O)C9=O)CC7)C6)CC5)ncn4)c3c2)CC1 (stereo partly drawn) [Compound 119, 2-(2,6-dioxopiperidin-3-yl)-5-(4-{[(3R)-1-[(1-{6-[5-(1-methylcyclopropoxy)-1H-indazol-3-yl]pyrimidin-4-yl}piperidin-4-yl)methyl]pyrrolidin-3-yl]oxy}piperidin-1-yl)-2,3-dihydro-1H-isoindole-1,3-dione]	< 10 nM	< 50%	< 50%	< 10 nM	–	–	–	–
CC1(Oc2ccc3[nH]nc(-c4cc(N5CCC(CN6CC[C@@H](CN7CCN(c8ccc9c(c8)C(=O)N(C8CCC(=O)NC8=O)C9=O)CC7)C6)CC5)ncn4)c3c2)CC1 (stereo partly drawn) [Compound 115, 2-(2,6-dioxopiperidin-3-yl)-5-(4-{[(3R)-1-[(1-{6-[5-(1-methylcyclopropoxy)-1H-indazol-3-yl]pyrimidin-4-yl}piperidin-4-yl)methyl]pyrrolidin-3-yl]methyl}piperazin-1-yl)-2,3-dihydro-1H-isoindole-1,3-dione]	< 10 nM	50 to 70%	50 to 70%	< 10 nM	–	–	–	–
C[C@H]1CN(c2cc(-c3n[nH]c4ccc(OC5CC5)cc34)ncn2)CCN1CC1CCN(CC2CCN(c3ccc4c(c3)C(=O)N(C3CCC(=O)NC3=O)C4=O)CC2)CC1 (stereo partly drawn) [Compound 72, 5-{4-[(4-{[(2S)-4-[6-(5-cyclopropoxy-1H-indazol-3-yl)pyrimidin-4-yl]-2-methylpiperazin-1-yl]methyl}piperidin-1-yl)methyl]piperidin-1-yl}-2-(2,6-dioxopiperidin-3-yl)-2,3-dihydro-1H-isoindole-1,3-dione]	10 to 50 nM	50 to 70%	50 to 70%	10 to 50 nM	–	–	–	–
CC1(Oc2ccc3[nH]nc(-c4cc(N5CC[C@@H](CN6CCN(CC7CCN(c8ccc9c(c8)C(=O)N(C8CCC(=O)NC8=O)C9=O)CC7)CC6)C5)ncn4)c3c2)CC1 (stereo partly drawn) [Compound 167, 2-(2,6-dioxo-3-piperidyl)-5-[4-[[4-[[(3S)-1-[6-[5-(1-methylcyclopropoxy)-1H-indazol-3-yl]pyrimidin-4-yl]pyrrolidin-3-yl]methyl]piperazin-1-yl]methyl]-1-piperidyl]isoindoline-1,3-dione]	–	–	–	–	< 10 nM	50 to 70%	50 to 70%	< 10 nM
CC1(Oc2ccc3[nH]nc(-c4cc(N5CCC(O[C@H]6C[C@H](OC7CCN(c8ccc9c(c8)C(=O)N(C8CCC(=O)NC8=O)C9=O)CC7)C6)CC5)ncn4)c3c2)CC1 (stereo partly drawn) [Compound 126, 2-(2,6-dioxo-3-piperidyl)-5-[4-[3-[[1-[6-[5-(1-methylcyclopropoxy)-1H-indazol-3-yl]pyrimidin-4-yl]-4-piperidyl]oxy]cyclobutoxy]-1-piperidyl]isoindoline-1,3-dione]	10 to 50 nM	< 50%	< 50%	10 to 50 nM	–	–	–	–
CC1(Oc2ccc3n[nH]c(-c4cc(N5CCN(Cc6ccc(CN7CCN(c8ccc9c(c8)C(=O)N(C8CCC(=O)NC8=O)C9=O)CC7)cc6)CC5)ncn4)c3c2)CC1 (stereo not drawn) [Compound 169, 2-(2,6-dioxo-3-piperidyl)-5-[4-[[4-[[4-[6-[5-(1-methylcyclopropoxy)-2H-indazol-3-yl]pyrimidin-4-yl]piperazin-1-yl]methyl]phenyl]methyl]piperazin-1-yl]isoindoline-1,3-dione]	–	–	–	–	10 to 50 nM	50 to 70%	< 50%	< 10 nM
CC1(Oc2ccc3[nH]nc(-c4cc(N5CCO[C@@H](CN6CCN(CC7CCN(c8ccc9c(c8)C(=O)N(C8CCC(=O)NC8=O)C9=O)CC7)CC6)C5)ncn4)c3c2)CC1 (stereo partly drawn) [Compound 153, 2-(2,6-dioxopiperidin-3-yl)-5-{4-[(4-{[(2S)-4-{6-[5-(1-methylcyclopropoxy)-1H-indazol-3-yl]pyrimidin-4-yl}morpholin-2-yl]methyl}piperazin-1-yl)methyl]piperidin-1-yl}-2,3-dihydro-1H-isoindole-1,3-dione]	–	–	–	–	< 10 nM	< 50%	< 50%	< 10 nM
CC1(Oc2ccc3[nH]nc(-c4cc(N5CCN(C[C@@H]6CN(CCC7CCN(c8ccc9c(c8)C(=O)N(C8CCC(=O)NC8=O)C9=O)CC7)CCO6)CC5)ncn4)c3c2)CC1 (stereo partly drawn) [Compound 158, 2-(2,6-dioxo-3-piperidyl)-5-[4-[2-[(2R)-2-[[4-[6-[5-(1-methylcyclopropoxy)-1H-indazol-3-yl]pyrimidin-4-yl]piperazin-1-yl]methyl]morpholin-4-yl]ethyl]-1-piperidyl]isoindoline-1,3-dione]	–	–	–	–	< 10 nM	≥ 70%	≥ 70%	< 10 nM
CC1(Oc2ccc3[nH]nc(-c4cc(N5CCO[C@H](CN6CCN(CC7CCN(c8ccc9c(c8)C(=O)N(C8CCC(=O)NC8=O)C9=O)CC7)CC6)C5)ncn4)c3c2)CC1 (stereo partly drawn) [Compound 152, 2-(2,6-dioxo-3-piperidyl)-5-[4-[[4-[[(2R)-4-[6-[5-(1-methylcyclopropoxy)-1H-indazol-3-yl]pyrimidin-4-yl]morpholin-2-yl]methyl]piperazin-1-yl]methyl]-1-piperidyl]isoindoline-1,3-dione]	–	–	–	–	< 10 nM	< 50%	< 50%	< 10 nM
CC1(Oc2ccc3[nH]nc(-c4ccnc(N5CCC(CN6CCC(F)(CN7CCN(c8ccc9c(c8)C(=O)N(C8CCC(=O)NC8=O)C9=O)CC7)CC6)CC5)c4)c3c2)CC1 (stereo not drawn) [Compound 82, 2-(2,6-dioxo-3-piperidyl)-5-[4-[[4-fluoro-1-[[1-[4-[5-(1-methylcyclopropoxy)-1H-indazol-3-yl]-2-pyridyl]-4-piperidyl]methyl]-4-piperidyl]methyl]piperazin-1-yl]isoindoline-1,3-dione]	10 to 50 nM	50 to 70%	50 to 70%	10 to 50 nM	–	–	–	–
